The values below are quoted from earlier work in patent publication US20210137911A1, “NOVEL CHRONOTHERAPY BASED ON CIRCADIAN RHYTHMS” (THE TRUSTEES OF THE UNIVERSITY OF PENNSYLVANIA, priority 2014, published 2021).

Where two headings read alike, the source gives them in different places. Positions of bridges follow the written chain, without caps; N, C: chain ends. Non-standard residues stand in square brackets, D forms with d. Residues, ends and D or L forms follow the SMILES beside them. hArg = N=C(N)NCCCC[C@H](N)C(=O)O; Mpa = O=C(O)CCS

For the data set the following is noted: cited from earlier work.
[1] abbreviates: half-life of top selling therapeutic compounds (Table 1).
Where [2] appears, read: half-life of therapeutic compound as listed in Table 1.

Turning to `CC1(C)O[C@@H]2C[C@H]3[C@@H]4C[C@H](F)C5=CC(=O)C=C[C@]5(C)[C@H]4[C@@H](O)C[C@]3(C)[C@]2(C(=O)CO)O1` [Flunisolide], under setting [1], the “½ Life” value is 1.8 h. By half-life is commonly meant how long it takes for the measured level to halve. Regarding `NS(=O)(=O)c1cc2c(cc1Cl)NCNS2(=O)=O` [Hydrocholorthiazide, reference compound], the “½ Life” value (in vivo) is 5.6 h. Moreover, the half-life (see Table 1) was 5.6 h.

For the compound `OC[C@H]1O[C@@H](n2cnc3c2NC=NC[C@H]3O)C[C@@H]1O` [Pentostatin], the “½ Life” value under setting [2] was 5.7 h. Consider `CC[C@H](C)C(=O)O[C@H]1C[C@@H](C)C=C2C=C[C@H](C)[C@H](CC[C@@H]3C[C@@H](O)CC(=O)O3)[C@H]21` [Lovastatin], for which the “½ Life” value under setting [2] was 5.3 h. For the compound `CC(=O)Oc1ccc2c3c1O[C@H]1[C@@H](OC(C)=O)C=C[C@H]4[C@@H](C2)N(C)CC[C@@]341` [Heroin], the “½ Life” value under setting [2] was 0.166 h. Take Defibrotide: the “½ Life” value (in vivo) is 1 h. In the case of `COC(=O)Nc1nc2ccc(C(=O)c3ccccc3)cc2[nH]1` [Mebendazole], the “½ Life” value under setting [2] is 2.5 h. `N=C(N)NCCCC[C@@H]1NC(=O)CCSSC[C@@H](C(N)=O)NC(=O)[C@@H]2CCCN2C(=O)[C@H](Cc2c[nH]c3ccccc23)NC(=O)[C@H](CC(=O)O)NC(=O)CNC1=O` [Eptifibatide] ([Mpa][hArg]GDWPC-NH2; disulfide 1-7): the “½ Life” value (in vivo) was 2.5 h. In the case of `CN1CCc2cccc3c2[C@H]1Cc1ccc(O)c(O)c1-3` [Apomorphine], the “½ Life” value under setting [1] was 0.66 h. On to `CCCCC[C@H](O)CC[C@@H]1[C@H]2Cc3cccc(OCC(=O)O)c3C[C@H]2C[C@H]1O` [Treprostinil], for which the “½ Life” value (in vivo) is 2 h. For Alglucosidase alfa, the “½ Life” value (in vivo) is 2.3 h.

With `NCC(=O)CCC(=O)O` [Aminolevulinic acid], under setting [1], the “½ Life” value is 0.7 h. As for `CCCc1cc(=O)[nH]c(=S)[nH]1` [Propylthiouracil], the “½ Life” value (in vivo) is 2 h. For `NC(=O)CCC/N=C(\c1ccc(Cl)cc1)c1cc(F)ccc1O` [Progabide], the “½ Life” value under setting [2] was 4 h. With `NC(=O)CC[C@@H]1NC(=O)[C@H](Cc2ccccc2)NC(=O)[C@H](Cc2ccc(O)cc2)NC(=O)[C@@H](N)CSSC[C@@H](C(=O)N2CCC[C@H]2C(=O)N[C@@H](CCCN=C(N)N)C(=O)NCC(N)=O)NC(=O)[C@H](CC(N)=O)NC1=O` [Vasopressin], where the note is “in vivo”, the “½ Life” value was 0.166 h.

In the case of `COCCCOc1ccnc(C[S+]([O-])c2nc3ccccc3[nH]2)c1C` (stereo not shown) [Rabeprazole], the “½ Life” value (in vivo) was 1 h. In the case of Insulin Glulisine, the “½ Life” value (in vivo) was 0.7 h.

On to `COc1cc(NC(C)CCCN)c2ncccc2c1` (stereo not shown) [Primaquine], for which the “½ Life” value under setting [2] was 3.7 h.

In the case of Vitamin A, the “½ Life” value (in vivo) was 1.9 h. As for `Cn1c(=O)c2[nH]cnc2n(C)c1=O` [Oxtriphylline], under setting [2], the “½ Life” value was 3 h. With `O=C1CN(/N=C/c2ccc(-c3ccc([N+](=O)[O-])cc3)o2)C(O)=N1` [Dantrolene], under setting [1], the “½ Life” value was 4 h. Regarding `NCCc1ccc(O)c(O)c1` [Dopamine], the “½ Life” value under setting [1] is 0.033 h. For the compound `N[C@@H](Cc1ccc(O)c(O)c1)C(=O)O` [L-DOPA], where the note is “in vivo”, the “½ Life” value was 0.833 h. With `Cc1ncc2n1-c1ccc(Cl)cc1C(c1ccccc1F)=NC2` [Midazolam], the “½ Life” value (in vivo) is 1.8 h. On to `NCC1(CC(=O)O)CCCCC1` [Gabapentin], for which the “½ Life” value (in vivo) was 5 h. As to `CC1OC2(CS1)CN1CCC2CC1` (stereo not shown) [Cevimeline], the “½ Life” value under setting [1] was 5 h. For the compound `CN(CCOc1ccc(CC2SC(=O)NC2=O)cc1)c1ccccn1` (stereo not shown) [Rosiglitazone], under “in vivo”, the “½ Life” value is 3 h. On to `COC(=O)[C@H](Cc1ccccc1)NC(=O)[C@@H](N)CC(=O)O` [Aspartame] (H-Asp-Phe-OMe), for which the “½ Life” value under setting [1] is 4.3 h. Regarding `CC(=O)S[C@@H]1CC2=CC(=O)CC[C@]2(C)[C@H]2CC[C@@]3(C)[C@@H](CC[C@@]34CCC(=O)O4)[C@H]12` [Spironolactone], where the note is “in vivo”, the “½ Life” value is 0.166 h. For `O=C1CCC(N2C(=O)c3ccccc3C2=O)C(=O)N1` (stereo not shown) [Thalidomide], the “½ Life” value (in vivo) is 5 h. Turning to `CCc1nn(CCCN2CCN(c3cccc(Cl)c3)CC2)c(=O)n1CCOc1ccccc1` [Nefazodone], under setting [2], the “½ Life” value was 2 h. Regarding `O=C(O)c1cc(/N=N/c2ccc(O)c(C(=O)O)c2)ccc1O` [Olsalazine], the “½ Life” value under setting [2] was 0.9 h. For `CNC[C@H](O)c1ccc(O)c(O)c1` [Epinephrine], under setting [1], the “½ Life” value is 0.033 h.

For the compound Insulin Lispro, for the setting “in vivo”, the “½ Life” value was 1 h.

Take `COc1cc([C@@H]2c3cc4c(cc3[C@@H](O[C@@H]3O[C@@H]5CO[C@@H](c6cccs6)O[C@H]5[C@H](O)[C@H]3O)[C@H]3COC(=O)[C@H]23)OCO4)cc(OC)c1O` [Teniposide]: the “½ Life” value (in vivo) was 5 h.

Consider `CCCCP(=O)(O)CCCN` [SGS742], for which, under “in vivo”, the “½ Life” value is 4 h. In the case of `CC(C)C[C@H](NC(=O)[C@@H](COC(C)(C)C)NC(=O)[C@H](Cc1ccc(O)cc1)NC(=O)[C@H](CO)NC(=O)[C@H](Cc1c[nH]c2ccccc12)NC(=O)[C@H](Cc1cnc[nH]1)NC(=O)[C@@H]1CCC(=O)N1)C(=O)N[C@@H](CCCNC(=N)N)C(=O)N1CCC[C@H]1C(=O)NNC(N)=O` [Goserelin], the “½ Life” value under setting [2] is 4 h. Turning to `Cn1cc[nH]c1=S` [Methimazole], under setting [2], the “½ Life” value is 5 h.

In the case of `CCCCCc1cc(O)c2c(c1)OC(C)(C)[C@@H]1CCC(C)=C[C@@H]21` [Dronabinol], the “½ Life” value (in vivo) was 4 h.

On to `C[C@@H](CN1CC(=O)NC(=O)C1)N1CC(=O)NC(=O)C1` [Dexrazoxane], for which, under setting [1], the “½ Life” value was 2.5 h.

As for `C[C@]12CCC(=O)C=C1CC[C@H]1[C@@H]3CC[C@](O)(C(=O)CO)[C@@]3(C)C[C@H](O)[C@@]12F` [Fludrocortisone], the “½ Life” value under setting [1] was 3.5 h. With `CC(C)C[C@H]1C(=O)N2CCC[C@H]2[C@]2(O)O[C@](NC(=O)[C@@H]3C=C4c5cccc6[nH]c(Br)c(c56)C[C@H]4N(C)C3)(C(C)C)C(=O)N12` [Bromocriptine], the “½ Life” value under setting [1] is 2 h. With `Nc1nc(Cl)nc2c1ncn2[C@@H]1O[C@H](CO)[C@@H](O)[C@@H]1F` [Clofarabine], the “½ Life” value under setting [1] was 5.2 h.

With `C1CCC(C(CC2CCCCN2)C2CCCCC2)CC1` (stereo not shown) [Perhexiline], the “½ Life” value under setting [2] is 2 h. Turning to Heparin, the “½ Life” value (in vivo) was 1.5 h. Regarding `N#C[C@@H]1CCCN1C(=O)CNC12CC3CC(CC(O)(C3)C1)C2` [Vildagliptin], the “½ Life” value (in vivo) is 1.5 h.

Take `Cc1ccc(Cl)c(OCC(O)CNC(C)(C)C)c1` (stereo not shown) [Bupranolol]: the “½ Life” value under setting [1] was 2 h. On to `C[C@@]12CCCCC[C@@H](Cc3ccc(O)cc31)[C@@H]2N` [Dezocine], for which the “½ Life” value (in vivo) is 2.2 h. Regarding `CCOc1ccc2nc(S(N)(=O)=O)sc2c1` [Ethoxzolamide], the “½ Life” value under setting [1] is 2.5 h.

For the compound Muromonab, the “½ Life” value (in vivo) was 0.8 h. With `CN(CC(=O)O)C(=N)N` [Creatine], the “½ Life” value under setting [1] was 3 h. Consider `CCOC(=O)[C@H](CCc1ccccc1)N[C@@H](C)C(=O)N1[C@H](C(=O)O)C[C@@H]2CCC[C@@H]21` [Ramipril, reference compound], for which the “½ Life” value (in vivo) was 2 h. For the setting “see Table 1”, the minimum reported half-life was 2 h.

Consider `Nc1cc(N2CCCCC2)nc(N)[n+]1[O-]` [Minoxidil], for which, under “in vivo”, the “½ Life” value is 4.2 h. Regarding `C[C@]12C=CC(=O)C=C1CC[C@@H]1[C@@H]2[C@@H](O)C[C@@]2(C)[C@H]1CC[C@]2(O)C(=O)CO` [Prednisolone], under “in vivo”, the “½ Life” value is 2 h. As for `CC(C)n1c(/C=C/C(O)CC(O)CC(=O)O)c(-c2ccc(F)cc2)c2ccccc21` (stereo not shown) [Fluvastatin, reference compound], the “½ Life” value under setting [1] is 3 h. Turning to `CC(C)(O)c1ccccc1CC[C@@H](SCC1(CC(=O)O)CC1)c1cccc(/C=C/c2ccc3ccc(Cl)cc3n2)c1` [Montelukast], where the note is “in vivo”, the “½ Life” value was 2.7 h. With `COc1ccc(Cc2nccc3cc(OC)c(OC)cc23)cc1OC` [Papaverine], the “½ Life” value (in vivo) was 0.5 h.

`CCOc1cc(CC(=O)N[C@@H](CC(C)C)c2ccccc2N2CCCCC2)ccc1C(=O)O` [Repaglinide]: for the setting “in vivo”, the “½ Life” value was 1 h. `NNCCc1ccccc1` [Phenelzine]: the “½ Life” value under setting [2] was 1.2 h.

On to `CC1=C(/C=C/C(C)=C/C=C/C(C)=C/C(=O)O)C(C)(C)CCC1` [Tretinoin], for which, under “in vivo”, the “½ Life” value is 0.5 h.

For `CCc1cc2c(s1)N(C)C(=O)CN=C2c1ccccc1Cl` [Clotiazepam], the “½ Life” value under setting [1] is 4 h. Take `COc1ccc2c3c1O[C@H]1[C@@H](O)C=C[C@H]4[C@@H](C2)N(C)CC[C@@]341` [Codeine]: where the note is “in vivo”, the “½ Life” value is 3 h. Turning to `CCCCc1nc(Cl)c(CO)n1Cc1ccc(-c2ccccc2-c2nn[nH]n2)cc1` [Losartan, reference compound], the “½ Life” value under setting [2] was 1 h.

As for `CCCCCCCCCCC[C@@H](C[C@@H]1OC(=O)[C@H]1CCCCCC)OC(=O)[C@H](CC(C)C)NC=O` [Orlistat], the “½ Life” value under setting [2] is 1 h. Take `CN1C[C@H](C(=O)N[C@]2(C)O[C@@]3(O)[C@@H]4CCCN4C(=O)[C@H](Cc4ccccc4)N3C2=O)C=C2c3cccc4[nH]cc(c34)C[C@H]21` [Ergotamine]: the “½ Life” value (in vivo) is 2 h. For the compound `CC(C)(Oc1ccc(CCNC(=O)c2ccc(Cl)cc2)cc1)C(=O)O` [Bezafibrate, reference compound], the “½ Life” value under setting [1] was 1 h.

As to `CC(C)C[C@H](NC(=O)[C@@H](Cc1ccc2ccccc2c1)NC(=O)[C@H](Cc1ccc(O)cc1)NC(=O)[C@H](CO)NC(=O)[C@H](Cc1c[nH]c2ccccc12)NC(=O)[C@H](Cc1c[nH]cn1)NC(=O)[C@@H]1CCC(=O)N1)C(=O)N[C@@H](CCCNC(=N)N)C(=O)N1CCC[C@H]1C(=O)NCC(N)=O` [Nafarelin], the “½ Life” value (in vivo) is 3 h.

As for `CCCCNc1ccc(C(=O)OCCOCCOCCOCCOCCOCCOCCOCCOCCOC)cc1` [Benzonatate], the “½ Life” value under setting [1] is 3 h. As for `CNS(=O)(=O)Cc1ccc2[nH]cc(CCN(C)C)c2c1` [Sumatriptan], the “½ Life” value (in vivo) is 2.5 h.

Bleomycin: under setting [1], the “½ Life” value is 1.916 h. For the compound Nesiritide, where the note is “in vivo”, the “½ Life” value was 0.3 h.
